Here are results for one molecule from patent US20100040568A1, “Steroidal compounds as melanogenesis modifiers and uses thereof” (SkinMedica, Inc., priority 2008, published 2010).

Series [1] deals with Lamp-1 (lysome-associated membrane protein 1). The series is described as follows: Level of Lamp-1 in melan-a cells. It counts as cell-based, murine. The procedure:
Melan-a cells were incubated with various concentrations of conessine for 72 hours. Cell lysates were prepared and separated by 7.5% sodium dodecyl sulfate-polyacrylamide gel and transferred to Immobilon-P membranes. Tyrosinase gene family proteins were detected with antibodies against each protein. […] The effect of conessine on the level of Lamp-1 in melan-a cells was examined. A common lineage among the melanosomes and lysosomes is well accepted. Lamp-1 (lysome-associated membrane protein 1) is a lysosome marker. […] Thus, conessine treatment likely results in decreased degradation of both Lamp-1 and tyrosinase gene family proteins (FIG. 12d), thus unexpectedly acting as a melanogenesis […].

Series [2] relates to melan-a cells. The series is described as follows: Melanin assay in cultured murine melanocytes (melan-a). Format: cell-based. Particulars: 72 hours. The method, then: The Spectrum Collection library consisting of 2000 drug compounds or natural products was screened to identify novel pigmentation inhibitors or stimulators in cultured murine melanocytes (melan-a). Compounds were dissolved in dimethylsulfoxide (DMSO) to a final concentration of 10 mM. Screening was performed with cultured melanocytes in 24-well plates followed by melanin assay (see below). A minimum change of 50% in melanin formation was established as significant for a pigmentation inhibitor or stimulator. DMSO was used as a negative control and the widely used depigmenting agent, hydroquinone, was used as a positive control on every plate. […] Melan-a cells were plated at 5×10^4 cells per well in 1 ml of culture media in 24-well plates the day before adding the library compounds. All compounds were added at the indicated final concentrations. Cells were harvested after 72 hours of incubation, and melanin assay was performed. For the primary and secondary screening, cells were harvested and dissolved in 200 μl of 2N NaOH in 20% DMSO at 70° C. A 180-μl aliquot of the resulting solution was measured for absorbance at 490 nm. Cells are harvested in extraction buffer (1% Triton X-100, 50 mM Tris, 2 mM EDTA, 150 mM NaCl, pH 7.5) containing a complete protease inhibitor cocktail (Roche). The lysates were centrifuged at 14,000 rpm for 10 minutes at 4° C. BCA protein assay kit (Pierce) was used to measure the protein concentrations of the supernatants, and bovine serum albumin was used as a standard. […] A 180-μl aliquot of the resulting solution was measured for absorbance at 490 nm. The melanin contents were normalized to the total amount of protein. The IC50 value for inhibition of cellular melanin synthesis for conessine was determined by culturing melan-a cells with various concentrations of conessine for 72 hours. Briefly, melan-a cells were plated at 5×10^4 cells per well in 1 ml of culture media in 24-well plates the day before adding conessine. Conessine was added at the indicated final concentrations. DMSO was used as a negative control. Cells were harvested after 72 hours of incubation, and spectrophotometric melanin assay was performed on cell pellets. The melanin contents were normalized to the total amount of protein. Cell viability was determined by using the CellTiter 96 aqueous nonradioactive cell proliferation assay. […] Licorice extract was tested under similar conditions as conessine for its ability to decrease melanin synthesis in melan-a cells (FIG. 11c). Melan-a cells were plated at 5×10^4 cells per well in 1 ml of culture media in 24-well plates the day before adding Licorice extract. 70% ethanol was used as control and the Licorice extract was diluted in cell culture media at the indicated concentrations. […] Cells were harvested after 72 hours of incubation, and spectrophotometric melanin assay was performed on cell pellets. The melanin contents were normalized to the total amount of protein. Cell viability was determined by using the CellTiter 96 aqueous nonradioactive cell proliferation assay.

Series [3] concerns melan-a cells. Briefly: CellTiter 96 aqueous nonradioactive cell proliferation assay (cell viability). It counts as cell-based, murine. Particulars: concentrations below 20 μM. The procedure: The IC50 value for inhibition of cellular melanin synthesis for conessine was determined by culturing melan-a cells with various concentrations of conessine for 72 hours. Briefly, melan-a cells were plated at 5×10^4 cells per well in 1 ml of culture media in 24-well plates the day before adding conessine. Conessine was added at the indicated final concentrations. DMSO was used as a negative control. Cells were harvested after 72 hours of incubation, and spectrophotometric melanin assay was performed on cell pellets. The melanin contents were normalized to the total amount of protein. Cell viability was determined by using the CellTiter 96 aqueous nonradioactive cell proliferation assay.

As to `CC1C2CCC3C4CC=C5CC(N(C)C)CCC5(C)C4CCC32CN1C` (stereo not drawn) [Compound 1, Conessine], the “cellular level of Lamp-1” value in series [1] is given as “increases cellular level of Lamp-1”. Further, in the series with melan-a cells [2] (indicated concentrations), the “effect on melanin synthesis in melan-a cells” value was “significantly inhibited melanogenesis in a dose-dependent manner”. Besides, the IC50 in the series with melan-a cells [2] (Mus musculus, melan-a cells, melanin normalized to protein, read-out: IC50 value for inhibition of cellular melanin synthesis) was about 2.5 µM. The “% of control remaining @ 1 μM” value in the series with melan-a cells [2] (melanin, melan-a cells, 1 μM) is 73.3 % of control. The “% of control remaining @ 5 μM” value in the series with melan-a cells [2] (melanin, melan-a cells, 5 μM) is 32.2 % of control. Also, the cytotoxicity result with melan-a cells [3] is given as “did not exhibit cytotoxicity”.
